In ChEMBL document CHEMBL4483862, “Open-source discovery of chemical leads for next-generation chemoprotective antimalarials” (2018) one finds IC50 and IC90 data, which are given here for 29 compounds.

The subject of this experiment is Plasmodium berghei. Description: Luciferase/luciferin-expressing antifolate-resistant parasites were used to infect a culture of HepG2 cells that were pre-incubated with compounds. Infected hepatocytes emit light due to the luciferase reaction. Assay results are presented as the percent inhibition of light emission compared to control. […]. It is filed as functional. To be noted: sporozoite; for IC90: read-out: LUCIFERASE INFECTION ASSAY - IC90.

Molecules are shown by their SMILES.

Turning to `CCNc1ccc(C(=O)OCC)cc1NC(=O)c1cccc(N(C)C)c1`, the IC90 (usually the concentration needed for an effect of 90%) was 2.65 µM. Also, the IC50 – broadly, the concentration at which inhibition is half-maximal – (HEPG2TOX_HILL_SLOPE 1.36, HEPG2TOX_R_SQUARED 0.981, PBLUC_HILL_SLOPE 2.44, PBLUC_R_SQUARED 0.636, read-out: LUCIFERASE INFECTION ASSAY - IC50) is 1.08 µM.
Consider `CCN(C(S)=Nc1cccnc1)c1cccc2ccccc12`, for which the 90% effect concentration (IC90) was above 10 µM. Besides, under “HEPG2TOX_HILL_SLOPE 1.34, HEPG2TOX_R_SQUARED 0.711, PBLUC_HILL_SLOPE 4.21, PBLUC_R_SQUARED 0.184, read-out: LUCIFERASE INFECTION ASSAY - IC50”, the IC50 was found to be 7.6 µM.
For `CCOC(=O)c1sc(N)c(C#N)c1CSc1nc(-c2ccccc2)cs1`, the IC90 was 3.69 µM. Besides, where the note is “HEPG2TOX_HILL_SLOPE 1.34, HEPG2TOX_R_SQUARED 0.985, PBLUC_HILL_SLOPE 11.8, PBLUC_R_SQUARED 0.536, read-out: LUCIFERASE INFECTION ASSAY - IC50”, the IC50 amounted to 3.06 µM.
On to `Cc1noc(C)c1CCC(=O)Nc1nc2cc(C(F)(F)F)ccc2n1Cc1ccco1`, for which the IC90 was 3.57 µM. Moreover, the IC50 (HEPG2TOX_HILL_SLOPE 1.36, HEPG2TOX_R_SQUARED 0.789, PBLUC_HILL_SLOPE 10.4, PBLUC_R_SQUARED 0.861, read-out: LUCIFERASE INFECTION ASSAY - IC50) amounted to 2.89 µM.
For the compound `Oc1ccc(-c2cnc3cnc(-c4ccc(Cl)cc4Cl)cn23)cc1`, the IC90 turned out to be 3.44 µM. For the same compound, the half-maximal inhibitory concentration (IC50) (HEPG2TOX_HILL_SLOPE 1.37, HEPG2TOX_R_SQUARED 0.776, PBLUC_HILL_SLOPE 1.58, PBLUC_R_SQUARED 0.733, read-out: LUCIFERASE INFECTION ASSAY - IC50) was 0.858 µM.
For `O=C(NNC(=O)c1nn(-c2ccccc2)cc1O)c1ccc(-n2cccn2)cc1`, the IC90 is 4.26 µM. Besides, the half-maximal inhibitory concentration (IC50) (HEPG2TOX_HILL_SLOPE 1.34, HEPG2TOX_R_SQUARED 0.874, PBLUC_HILL_SLOPE 11.6, PBLUC_R_SQUARED 0.65, read-out: LUCIFERASE INFECTION ASSAY - IC50) is 3.53 µM.
Regarding `COc1cc(-c2nccc3n[nH]c(C4CC4)c23)cc(OC)c1OC`, the concentration for an effect of 90% (IC90) was above 10 µM. Besides, the half-inhibitory concentration (IC50) (HEPG2TOX_HILL_SLOPE 1.34, HEPG2TOX_R_SQUARED 0.994, read-out: LUCIFERASE INFECTION ASSAY - IC50) is above 10 µM.
For `COc1cc(C(=O)c2c(N)c(C#N)cn3c2nc2ccccc23)cc(OC)c1OC`, the IC90 was 1.04 µM. In addition, the half-inhibitory concentration (IC50) (HEPG2TOX_HILL_SLOPE 1.34, 0.970, HEPG2TOX_R_SQUARED 0.842, 0.883, PBLUC_HILL_SLOPE 1.49, PBLUC_R_SQUARED 0.764, read-out: LUCIFERASE INFECTION ASSAY - IC50) worked out at 0.237 µM.
`COc1ccc(CN=C2NN=C(c3cc4ccccc4o3)CS2)cc1`: the IC90 was 0.318 µM. In addition, the IC50 (HEPG2TOX_HILL_SLOPE 1.33, HEPG2TOX_R_SQUARED 0.982, PBLUC_HILL_SLOPE 1.63, PBLUC_R_SQUARED 0.322, read-out: LUCIFERASE INFECTION ASSAY - IC50) was determined as 0.0829 µM.
In the case of `c1ccc(C2(CNc3ncnc4ccccc34)CCC2)cc1`, the IC90 stood at 5.71 µM. Moreover, the IC50 (HEPG2TOX_HILL_SLOPE 1.34, HEPG2TOX_R_SQUARED 0.743, PBLUC_HILL_SLOPE 15.9, 1.42, PBLUC_R_SQUARED 0.162, 0.799, read-out: LUCIFERASE INFECTION ASSAY - IC50) turned out to be 2.35 µM.
With `COc1ccc(C(C)C)cc1-c1cc(N2CCCC2CO)n2nccc2n1` (stereo not drawn), the IC90 came out at 6.95 µM. Further, for the setting “HEPG2TOX_HILL_SLOPE 1.35, HEPG2TOX_R_SQUARED 0.737, PBLUC_HILL_SLOPE 1.83, PBLUC_R_SQUARED 0.512, read-out: LUCIFERASE INFECTION ASSAY - IC50”, the IC50 amounted to 2.09 µM.
For `Cn1c(N)c(C(=O)CSc2nc(-c3ccccc3)c(-c3ccccc3)o2)c(=O)n(C)c1=O`, the IC90 is above 10 µM. The 50% inhibitory concentration (IC50) (HEPG2TOX_HILL_SLOPE 1.35, HEPG2TOX_R_SQUARED 0.367, PBLUC_HILL_SLOPE 15.8, PBLUC_R_SQUARED 0.143, read-out: LUCIFERASE INFECTION ASSAY - IC50) was determined as 9 µM.
Turning to `Cc1cc(C(=O)OCC(=O)NC(C)c2ccccc2)c(C)n1-c1ccccc1` (stereo not drawn), the 90% effect concentration (IC90) was above 10 µM. Also, where the note is “HEPG2TOX_HILL_SLOPE 1.33, HEPG2TOX_R_SQUARED 0.976, PBLUC_HILL_SLOPE 3.52, PBLUC_R_SQUARED 0.43, read-out: LUCIFERASE INFECTION ASSAY - IC50”, the concentration for half-maximal inhibition (IC50) turned out to be 7.39 µM.
Take `Cc1ccc(/C(C#N)=C/c2ccc(N(C)C)cc2)cc1`: the 90% effect concentration (IC90) was 5.07 µM. Moreover, the IC50 (HEPG2TOX_HILL_SLOPE 1.36, HEPG2TOX_R_SQUARED 0.894, PBLUC_HILL_SLOPE 0.698, PBLUC_R_SQUARED 0.911, read-out: LUCIFERASE INFECTION ASSAY - IC50) was found to be 0.218 µM.
For the compound `O=C(NC(CN1CCCC1)c1ccccc1)c1ccc(N2CCCC2=O)cc1` (stereo not drawn), the 90% effect concentration (IC90) was above 10 µM. Further, the IC50 (HEPG2TOX_HILL_SLOPE 1.34, HEPG2TOX_R_SQUARED 0.227, PBLUC_HILL_SLOPE 0.905, PBLUC_R_SQUARED 0.0409, read-out: LUCIFERASE INFECTION ASSAY - IC50) is above 10 µM.
Regarding `Cc1cc(NC(=O)c2cc(-c3cccs3)nc3ccccc23)n(-c2ccccn2)n1`, the IC90 turned out to be 4.61 µM. In addition, where the note is “HEPG2TOX_HILL_SLOPE 1.34, HEPG2TOX_R_SQUARED 0.908, PBLUC_HILL_SLOPE 3.47, PBLUC_R_SQUARED 0.53, read-out: LUCIFERASE INFECTION ASSAY - IC50”, the IC50 came out at 2.45 µM.
Take `CC(Oc1ccc(C#N)cc1)C(=O)Nc1nc(-c2ccccn2)cs1` (stereo not drawn): the IC90 is 3.36 µM. Also, the half-maximal inhibitory concentration (IC50) (HEPG2TOX_HILL_SLOPE 1.33, HEPG2TOX_R_SQUARED 0.927, PBLUC_HILL_SLOPE 145, PBLUC_R_SQUARED 0.223, read-out: LUCIFERASE INFECTION ASSAY - IC50) was 3.31 µM.
`Cc1c(C(=O)Nc2ccc(Oc3ccccc3)cc2)cnn1C`: the IC90 was above 10 µM. The IC50 (HEPG2TOX_HILL_SLOPE 1.34, HEPG2TOX_R_SQUARED 0.933, PBLUC_HILL_SLOPE 3.41, PBLUC_R_SQUARED 0.294, read-out: LUCIFERASE INFECTION ASSAY - IC50) was found to be 7.03 µM.
`O=C(Nc1nc(-c2ccccn2)cs1)c1ccc(-n2cncn2)cc1`: the IC90 was determined as 1.2 µM. Moreover, for the setting “HEPG2TOX_HILL_SLOPE 1.34, HEPG2TOX_R_SQUARED 0.829, PBLUC_HILL_SLOPE 31.3, PBLUC_R_SQUARED 0.545, read-out: LUCIFERASE INFECTION ASSAY - IC50”, the IC50 turned out to be 1.12 µM.
Turning to `Cc1cc(C)n(CCC(=O)N2CCN(C(c3ccc(F)cc3)c3ccc(F)cc3)CC2)n1`, the IC90 is above 10 µM. Further, the IC50 (HEPG2TOX_HILL_SLOPE 1.37, HEPG2TOX_R_SQUARED 0.338, PBLUC_HILL_SLOPE 18.9, PBLUC_R_SQUARED 0.322, read-out: LUCIFERASE INFECTION ASSAY - IC50) turned out to be 9.4 µM.
Consider `CNc1snc(C)c1C(=O)OCCOc1ccccc1C(C)=O`, for which the IC90 is 7.06 µM. Further, where the note is “HEPG2TOX_HILL_SLOPE 1.35, HEPG2TOX_R_SQUARED 0.846, PBLUC_HILL_SLOPE 3.65, PBLUC_R_SQUARED 0.5, read-out: LUCIFERASE INFECTION ASSAY - IC50”, the IC50 worked out at 3.86 µM.
Regarding `Cc1nc(NC(=O)Cc2nn(C)c(=O)c3ccccc23)sc1-c1ccccn1`, the IC90 is above 10 µM. Under “HEPG2TOX_HILL_SLOPE 1.36, HEPG2TOX_R_SQUARED 0.975, PBLUC_HILL_SLOPE 4.04, PBLUC_R_SQUARED 0.363, read-out: LUCIFERASE INFECTION ASSAY - IC50”, the concentration for half-maximal inhibition (IC50) stood at 8.34 µM.
In the case of `Cn1ccc2cc(-c3cn4c(-c5ccc(C#N)cc5)cnc4cn3)ccc21`, the IC90 amounted to 0.546 µM. For the setting “HEPG2TOX_HILL_SLOPE 1.34, HEPG2TOX_R_SQUARED 0.963, PBLUC_HILL_SLOPE 3.57, PBLUC_R_SQUARED 0.761, read-out: LUCIFERASE INFECTION ASSAY - IC50”, the half-inhibitory concentration (IC50) was 0.295 µM.
As to `CC(C)CCn1c(=O)c2ccccc2n2c(SCCS(=O)(=O)c3ccc(Cl)cc3)nnc12`, the IC90 is above 10 µM. Moreover, where the note is “HEPG2TOX_HILL_SLOPE 1.35, HEPG2TOX_R_SQUARED 0.511, PBLUC_HILL_SLOPE 2.98, PBLUC_R_SQUARED 0.427, read-out: LUCIFERASE INFECTION ASSAY - IC50”, the 50% inhibitory concentration (IC50) is 7.28 µM.
`Cc1ccc(-c2noc(CN3CCN(c4cc(C)nc(N)n4)CC3)n2)cc1`: the IC90 is above 10 µM. Under “HEPG2TOX_HILL_SLOPE 1.35, HEPG2TOX_R_SQUARED 0.853, PBLUC_HILL_SLOPE 1.09, PBLUC_R_SQUARED 0.613, read-out: LUCIFERASE INFECTION ASSAY - IC50”, the IC50 is 1.45 µM.
Consider `COc1cccc(/N=C2\SCC(C)(C)N2C(=O)c2ccccc2OCc2ccccc2C)c1`, for which the concentration for an effect of 90% (IC90) was above 10 µM. Where the note is “HEPG2TOX_HILL_SLOPE 1.35, HEPG2TOX_R_SQUARED 0.857, read-out: LUCIFERASE INFECTION ASSAY - IC50”, the IC50 is above 10 µM.
Consider `O=C(c1ccc2nc[nH]c2c1)N1CCc2nc(NCc3cccc(Oc4ccccc4)c3)ncc2C1`, for which the IC90 was above 6.92 µM. Besides, the IC50 (HEPG2TOX_HILL_SLOPE 1.36, HEPG2TOX_R_SQUARED 0.938, PBLUC_HILL_SLOPE 1.78, PBLUC_R_SQUARED 0.322, read-out: LUCIFERASE INFECTION ASSAY - IC50) was determined as 2.4 µM.
Turning to `O=C1NC(c2c(-c3ccccc3)[nH]c3ccccc23)Nc2ccccc21` (stereo not drawn), the IC90 is 1.21 µM. The concentration for half-maximal inhibition (IC50) (HEPG2TOX_HILL_SLOPE 1.35, HEPG2TOX_R_SQUARED 0.878, PBLUC_HILL_SLOPE 2.2, PBLUC_R_SQUARED 0.804, read-out: LUCIFERASE INFECTION ASSAY - IC50) is 0.447 µM.
Turning to `COc1ccc(-c2cnc(N)c(-c3cccnc3)c2)cc1OC`, the concentration for an effect of 90% (IC90) amounted to 9.72 µM. For the same compound, the IC50 (HEPG2TOX_HILL_SLOPE 1.35, HEPG2TOX_R_SQUARED 0.969, PBLUC_HILL_SLOPE 2.37, PBLUC_R_SQUARED 0.379, read-out: LUCIFERASE INFECTION ASSAY - IC50) was 3.85 µM.
